Test results from US4378360A, “6-{3-[4-(Substituted benzyl)-1-piperazinyl]propyloxy}-4,9-dihydro-4,9-dioxo-1H-naphtho[2,3-d-]- v” (Beecham Group Limited, priority 1980, dated 1983).
Several values for one entry are separate records, joined by “and”; a condition that tells them apart may be missing. Identical values can stand only once.

Key:
[1] = biological target: T1, histamine on isolated guinea pig ileum (Cavia porcellus, UniProt P31389); assay: Antihistamine activity (in vitro): antagonism of the spasmogenic effects of histamine on isolated guinea pig ileum; conditions: Tyrode solution, 30° C., antagonist 5-640 ng/ml, several assays per compound
T1 construct: strips of terminal guinea pig ileum suspended in a 4 ml capacity organ bath; from tissue; host or cells: terminal ileum strips of guinea pig (Dunkin Hartley male white guinea pigs)
T1 sequence (P31389 whole entry): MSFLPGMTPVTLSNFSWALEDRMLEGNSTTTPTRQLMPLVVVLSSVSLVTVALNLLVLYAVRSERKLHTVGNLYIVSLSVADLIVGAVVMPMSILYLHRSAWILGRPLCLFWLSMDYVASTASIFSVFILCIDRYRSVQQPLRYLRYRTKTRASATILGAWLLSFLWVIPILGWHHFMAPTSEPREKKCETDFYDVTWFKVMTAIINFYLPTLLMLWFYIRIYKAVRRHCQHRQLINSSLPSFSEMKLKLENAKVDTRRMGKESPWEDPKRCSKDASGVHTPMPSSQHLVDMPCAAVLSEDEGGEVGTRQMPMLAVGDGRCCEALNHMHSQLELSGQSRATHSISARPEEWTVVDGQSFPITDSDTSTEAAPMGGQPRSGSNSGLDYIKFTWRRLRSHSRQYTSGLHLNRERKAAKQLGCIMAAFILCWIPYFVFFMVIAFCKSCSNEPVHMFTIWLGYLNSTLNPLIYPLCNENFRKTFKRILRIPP
Procedure: (b) antagonise the spasmogenic effects of histamine on isolated guinea pig ileum.
(§1) Charles River Sprague Dawley male rats of 225-275 g and Dunkin Hartley male white guinea pigs of 250-300 g were used.
The anti-histamine activity of these compounds were measured in terms of pA2 values on guinea pig ileum using the method described by Arunlakshana, O. and Schild, H. O. (Brit J Pharm, 14, 1959, 48).
The pA2 is defined as the negative logarithm of the molar concentration of antagonist that will reduce the response of a double dose of agonist to that of a single dose.
Assays were carried out using strips of terminal guinea pig ileum suspended in a 4 ml capacity organ bath. The ileum was immersed in aerated Tyrode solution at a temperature of 30° C. and a tension of 1 gm was applied to the gut. Longitudinal contractions of the gut were recorded isotonically using a 2LD01 Devices transducer, a R2502-2 Devices optical wedge and a RE511.20 Smiths servoscribe flat bed recorder.
The tissue was constantly immersed in Tyrode solution washing was by fluid displacement from below. […]
The height of the response was measured in mms and a mean value calculated. […] The dose of histamine which produced a response of 100 mms were obtained for each curve from the graph and the ratio designated CR was calculated from [formula] […]

[2] = tested on: rat passive peritoneal anaphylaxis; assay: Rat passive peritoneal anaphylaxis (PPA): histamine, SRS-A and dye in peritoneal fluid; format: in vivo; conditions: mean ± SEM, 5-7 rats per group
Text: (a) inhibit rat passive peritoneal anaphylaxis; and
(a) Rat passive peritoneal anaphylaxis (PPA)
The method has been described previously (Ross, Janet W., Smith, H. and Spicer, Barbara A. Increased vascular permeability during passive peritoneal anaphylaxis in the rat, Int Arch Allergy appl Immun, 51, 226, 1976).
as §1
This was raised in rats in one of two ways.
Charles River Sprague Dawley male rats of 225 to 275 g were given subcutaneous injections of 10 μg of ovalbumin (chicken egg albumin; crystallised and lyophilised, grade 3, Sigma London), in 0.5 ml of a suspension prepared by adding 1 ml of a 0.1 mg/ml solution of ovalbumin, in isotonic saline, to 4 ml of a 1% suspension of aluminium hydroxide in saline (Alhydrogel; Miles Laboratories, England; diluted 1:1 with isotonic saline). The rats were bled on day 10.
Charles River Sprague Dawley male rats of 225 to 300 g were given intraperitoneal injections of 0.5 ml of Bordetella pertussis vaccine (4×10^10 organisms/ml Burroughs Wellcome, London) and subcutaneous injections of 0.5 ml of an emulsion of 100 mg of ovalbumin of 2 ml of isotonic saline and 3 ml of Freund's incomplete adjuvant (Pifco Laboratories, Michigan USA). The rats were bled on day 18.
The rats were bled by cardiac puncture, the blood was pooled, from groups of rats treated similarly, and the serum separated, stored at -20° and thawed only once before use. The serum sensitised rats for passive cutaneous anaphylaxis (carried out as described: Spicer, Barbara A; Ross, Janet W and Smith, H; Inhibition of immediate hypersensitivity reactions in the rat by disodium cromoglycate and a nitroindanedione, Clin exp, Immunol, 21, 419, 1975) to a dilution of 1:32 to 1:64 persisting for at least 72 hours after sensitisation.
Rats were given intraperitoneal injections of 2 ml of a 1:5 dilution of the rat anti-serum in isotonic saline. Two hours later 0.3 ml of a 5% solution of Pontamine Sky Blue (Raymond A. Lamb, London) in isotonic saline was injected intravenously, followed by an intraperitoneal injection of the test compound in 1 ml of saline; (control rats received 1 ml of saline); followed 30 seconds later by an intraperitoneal injection of 5 ml of a Tyrode solution containing 50 μg/ml heparin and 0.4 mg/ml of ovalbumin. The concentrations of the compounds were quoted as those in the 6 ml of fluid injected intraperitoneally. Exactly 5 minutes after challenge the rats were stunned and bled and their peritoneal fluids were collected by opening their peritoneal cavities over funnels into polycarbonate tubes in ice. The supernatants were separated from the cellular residue by centrifuging at 150 g for 5 minutes and any samples obviously contaminated with blood were discarded for estimattion of dye, histamine and SRS-A. Groups of at least 5 rats were used for each dose of compound and the treatments were randomised.
Collected peritoneal fluids were immediately cooled to 0° C. and centrifuged and the supernatant fluids assayed for dye within 2 hours. 0.5 ml samples of the supernatants were added to 1 ml of 12% trichloracetic acid and stored at -20° C. and used to assay for histamine. The remainders of the supernatant fluids were placed in a boiling water bath for 5 minutes and stored frozen at -20° C. until assayed for SRS-A.
The optical densities (OD) at 625 nm of the supernatants were determined. Samples were taken from supernatants with an OD greater than 2 and diluted in Tyrode's solution before reading.
Histamine was assayed using an automated spectrofluorimetric system (Technicon Autoanalyser) by a method similar to that of Evans, D.P., Lewis, J. A. and Thomson, D. S.; (An automated fluorimetric assay for the rapid determination of histamine in biological fluids. Life Sci 12,327, 1973). […]

| Structure (SMILES) | pA2 values obtained in different assays [1] | Dye concentration in peritoneal fluid as % of mean of controls ([2]; 2 × 10^-5 M injected ip) | Histamine concentration in peritoneal fluid as % of mean of controls ([2]; 2 × 10^-5 M injected ip) | SRS-A concentration in peritoneal fluid as % of mean of controls ([2]; 2 × 10^-5 M injected ip) | Dye concentration in peritoneal fluid as % of mean of controls ([2]; 2 × 10^-6 M injected ip) | Histamine concentration in peritoneal fluid as % of mean of controls ([2]; 2 × 10^-6 M injected ip) | SRS-A concentration in peritoneal fluid as % of mean of controls ([2]; 2 × 10^-6 M injected ip) | Dye concentration in peritoneal fluid as % of mean of controls ([2]; 10^-5 M injected ip) | Histamine concentration in peritoneal fluid as % of mean of controls ([2]; 10^-5 M injected ip) | SRS-A concentration in peritoneal fluid as % of mean of controls ([2]; 10^-5 M injected ip) | Dye concentration in peritoneal fluid as % of mean of controls ([2]; 10^-6 M injected ip) | Histamine concentration in peritoneal fluid as % of mean of controls ([2]; 10^-6 M injected ip) | SRS-A concentration in peritoneal fluid as % of mean of controls ([2]; 10^-6 M injected ip) | Dye concentration in peritoneal fluid as % of mean of controls ([2]; 10^-7 M injected ip) | Histamine concentration in peritoneal fluid as % of mean of controls ([2]; 10^-7 M injected ip) | SRS-A concentration in peritoneal fluid as % of mean of controls ([2]; 10^-7 M injected ip) | Kb ([1]; read-out: pA2 values obtained in different assays (converted)) |
| --- | --- | --- | --- | --- | --- | --- | --- | --- | --- | --- | --- | --- | --- | --- | --- | --- | --- |
| O=C1c2cc(OCCCN3CCN(Cc4ccccc4Cl)CC3)ccc2C(=O)c2[nH]nnc21 [Example 3, 6-{3-[4-(2-Chlorobenzyl)-1-piperazinyl]propyloxy}-4,9-dihydro-4,9-dioxo-1H-naphtho[2,3-d]-v-triazole] | 9.1 and 9.0 | – | – | – | – | – | – | – | – | – | – | – | – | – | – | – | – |
| O=C1c2cc(OCCCN3CCN(Cc4ccc(Cl)cc4)CC3)ccc2C(=O)c2[nH]nnc21 [Example 1, 6-{3-[4-(4-Chlorobenzyl)-1-piperazinyl]propyloxy}-4,9-dihydro-4,9-dioxo-1H-naphtho[2,3-d]-v-triazole] | – | 29 ± 2 % of mean of controls | 16 ± 2 % of mean of controls | 75 ± 13 % of mean of controls | 47 ± 6 % of mean of controls | 23 ± 3 % of mean of controls | 119 ± 25 % of mean of controls | 38 ± 3 % of mean of controls | 17 ± 3 % of mean of controls | 39 ± 8 % of mean of controls | 54 ± 6 % of mean of controls | 27 ± 5 % of mean of controls | 65 ± 18 % of mean of controls | 75 ± 7 % of mean of controls | 90 ± 16 % of mean of controls | 109 ± 18 % of mean of controls | 1 nM and 0.501 nM (2×) and 1.26 nM |
| O=C1c2cccc(OCCCN3CCN(Cc4ccc(Cl)cc4)CC3)c2C(=O)c2nn[nH]c21 [Example 4, 5-{3-[4-(4-Chlorobenzyl)-1-piperazinyl]-propyloxy}-4,9-dihydro-4,9-dioxo-1H-naphtho-[2,3-d]-v-triazole] | – | – | – | – | – | – | – | 43 ± 2 % of mean of controls | 10 ± 1 % of mean of controls | – | 60 ± 11 % of mean of controls | 27 ± 4 % of mean of controls | – | 85 ± 9 % of mean of controls | 67 ± 8 % of mean of controls | – | – |
